Test results reported in BindingDB's records for doi:10.1021/jm00143a003 (1982).

Target: Spermine synthase (Rattus norvegicus)
Assay: Inhibitory activity against spermine synthase

C[S+](C[C@H]1O[C@H](n2cnc3c(N)ncnc32)[C@H](O)[C@@H]1O)C(CCN)CCCCCN (stereo partly specified)
IC50: 80 µM
